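Grown in 96-well plates, cells were treated for 48 hours with each compound at five concentrations. Insufficient inhibition: endpoint recorded as highest concentration tested. At the GI50, growth is halved. TGI denotes the concentration required for complete inhibition of growth.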 Where a SMILES comes first, the peptide text is derived from it. The star is where a group is joined. Palmitoyl = CCCCCCCCCCCCCCCC(=O)*
Columns and labels:
Assay in all cases: NCI anticancer screen, dose series, 48 h
SK-OV-3 ovarian = tested on: SK-OV-3 ovarian
SN12C renal = tested on: SN12C renal
SK-MEL-28 melanoma = tested on: SK-MEL-28 melanoma
HCT-15 colon = tested on: HCT-15 colon
U251 CNS = tested on: U251 CNS
LOX IMVI melanoma = tested on: LOX IMVI melanoma
ACHN renal = tested on: ACHN renal
IGROV1 ovarian = tested on: IGROV1 ovarian
OVCAR-8 ovarian = tested on: OVCAR-8 ovarian
COLO 205 colon = tested on: COLO 205 colon

Row | Structure (SMILES) | TGI (SK-OV-3 ovarian) [µM] | TGI (SN12C renal) [µM] | TGI (SK-MEL-28 melanoma) [µM] | TGI (HCT-15 colon) [µM] | TGI (U251 CNS) [µM] | TGI (LOX IMVI melanoma) [µM] | TGI (ACHN renal) [µM] | TGI (IGROV1 ovarian) [µM] | TGI (OVCAR-8 ovarian) [µM] | TGI (COLO 205 colon) [µM] | GI50 (SK-OV-3 ovarian) [µM] | GI50 (SN12C renal) [µM] | GI50 (SK-MEL-28 melanoma) [µM] | GI50 (IGROV1 ovarian) [µM] | GI50 (HCT-15 colon) [µM] | GI50 (COLO 205 colon) [µM] | GI50 (ACHN renal) [µM] | GI50 (U251 CNS) [µM] | GI50 (LOX IMVI melanoma) [µM] | GI50 (OVCAR-8 ovarian) [µM]
1 | Cc1c(-c2ccccc2)[nH]c2cc(Cl)ccc2c1=O | > 100 | > 100 | > 100 | > 100 | 78.1 | > 100 | > 100 | – | – | – | – | – | – | – | – | – | – | – | – | –
2 | Cn1c(-c2ccccc2)cc(-c2cccs2)c1-c1cccs1 | > 100 | > 100 | > 100 | > 100 | > 100 | > 100 | – | > 100 | > 100 | > 100 | – | – | – | – | – | – | – | – | – | –
3 | c1ccc(-c2nc(N3CCNCC3)c3oc(-c4ccccc4)nc3n2)cc1 | 3.8 | 2.98 | 3.16 | 3.51 | – | – | 3 | 3.22 | – | 4.88 | 1.88 | 1.61 | 1.73 | 1.69 | 1.8 | 2.14 | 1.64 | – | – | –
4 | CCCC1CCC(=C2C(=O)CCC2=O)O1 (stereo not drawn) | > 100 | > 100 | > 100 | > 100 | > 100 | > 100 | > 100 | > 100 | > 100 | > 100 | – | – | – | – | – | – | – | – | – | –
5 | C/C(=N/N=C(\[O-])c1ccncc1)C(F)(F)F.C/C(=N\N=C(/[O-])c1ccncc1)C(F)(F)F.[Ni+2] | 0.005 | – | 0.005 | > 1 | – | > 1 | – | – | – | > 1 | 0.00156 | – | 0.00108 | – | > 1 | > 1 | – | > 1 | > 1 | –
6 | Nc1nc(Nc2ccccc2)c2[nH]cnc2n1 | > 100 | > 100 | > 100 | > 100 | > 100 | > 100 | > 100 | > 100 | > 100 | > 100 | – | – | – | – | – | – | – | – | – | –
7 | CON(C)c1nc(N(C)OC)nc(N(C)OC)n1 | > 10 | > 10 | > 10 | > 10 | > 10 | > 10 | > 10 | > 10 | > 10 | > 10 | – | – | – | – | – | – | – | – | – | –
8 | COc1cc(C(C)O)c[n+](Cc2ccccc2)c1 (stereo not drawn) | > 100 | > 100 | > 100 | > 100 | > 100 | > 100 | > 100 | > 100 | > 31.6 | > 100 | – | – | – | – | – | – | – | – | – | –
9 | CCOC(=O)c1c(C)n(-c2ccc(Cl)cc2)c2c1cc(O)c1[nH]c3c(c12)CCCC3 | > 100 | > 100 | > 100 | > 100 | > 100 | > 100 | > 100 | > 100 | > 100 | > 100 | – | – | – | – | – | – | – | – | – | –
10 | Nc1[nH]c(=O)nc2c1cnn2C1CCCCO1 (stereo not drawn) | – | > 100 | > 100 | > 100 | > 100 | > 100 | > 100 | > 100 | > 100 | > 100 | – | – | – | – | – | – | – | – | – | –
11 | CCCCCCCCCCCCCCCC(=O)N1CCCC1C(=O)NCC(=O)NC(Cc1ccccc1)C(=O)NC(C)C(=O)NC(CO)C(=O)NC(Cc1ccc(O)cc1)C(=O)NC(CCCCN)C(=O)NC(CC(C)C)C(=O)NC(CCCN=C(N)N)C(=O)N1CCCC1C(=O)NCC(N)=O (stereo not drawn) (Palmitoyl-PGFASYKLRPG-NH2; configuration not given here) | 28.7 | – | 48.8 | – | – | – | – | 46.1 | 51.9 | 22.8 | 12.8 | – | 22.1 | 20.1 | – | 10.9 | – | – | – | 24
12 | O[C@@]12Cc3c([nH]c4ccccc34)[C@@H]3Oc4cccc5c4[C@@]31CCN(CC1CC1)[C@@H]2C5 | – | 37 | 38.3 | 32.6 | 54 | 32.9 | 34.8 | 45.4 | 29 | 49.8 | – | – | – | – | – | – | – | – | – | –
13 | CC(N)Cc1ccc(Cl)c(Cl)c1 (stereo not drawn) | > 100 | > 74 | 39.1 | 84.9 | > 89.6 | > 68.5 | > 84.6 | > 100 | > 100 | 36.5 | – | – | – | – | – | – | – | – | – | –
14 | CN1C(c2ccccc2)CC(=O)C(N)C1c1ccccc1 (stereo not drawn) | > 100 | 97.6 | > 31.6 | > 63.1 | 49.2 | 32.1 | > 100 | > 100 | > 81.2 | 32.5 | – | – | – | – | – | – | – | – | – | –
15 | CC(C)C(C(=O)O)N1C(=O)c2ccccc2C1=O (stereo not drawn) | > 100 | > 100 | > 100 | > 100 | > 100 | > 100 | > 100 | > 100 | > 100 | > 100 | – | – | – | – | – | – | – | – | – | –
16 | Nc1nc(O)c2ncn([C@H]3CC[C@@H](CO)O3)c2n1 | > 100 | > 100 | > 100 | > 100 | > 100 | > 100 | – | > 100 | > 100 | > 100 | – | – | – | – | – | – | – | – | – | –
17 | C[N+](C)(C)c1ncnc2c1ncn2C1CC(O)C(CO)O1 (stereo not drawn) | > 100 | > 100 | > 100 | > 100 | > 100 | > 100 | > 100 | > 100 | > 100 | > 100 | – | – | – | – | – | – | – | – | – | –
